According to PubChem BioAssay (NCI):
Several values for one entry are separate records, joined by “and”; a condition that tells them apart may be missing. Identical values can stand only once.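 48-hour exposure; five concentrations; linearly interpolated endpoints. GI50 marks 50% less growth. TGI is the concentration that stops growth completely.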

Tests used:
Assay in all cases: inhibition of tumour cell growth, NCI panel, 48 h
HL-60(TB) leukemia = system: HL-60(TB) leukemia
OVCAR-3 ovarian = system: OVCAR-3 ovarian
COLO 205 colon = system: COLO 205 colon
EKVX NSCLC = system: EKVX NSCLC
SK-MEL-5 melanoma = system: SK-MEL-5 melanoma
NCI-H522 lung = system: NCI-H522 lung
T-47D breast = system: T-47D breast
UACC-62 melanoma = system: UACC-62 melanoma
CCRF-CEM leukemia = system: CCRF-CEM leukemia
NCI-H460 lung = system: NCI-H460 lung
HS 578T breast = system: HS 578T breast
U251 CNS = system: U251 CNS
HOP-62 NSCLC = system: HOP-62 NSCLC
NCI-H23 lung = system: NCI-H23 lung
ACHN renal = system: ACHN renal
MDA-MB-231 breast = system: MDA-MB-231 breast
TK-10 renal = system: TK-10 renal

SMILES | TGI (HL-60(TB) leukemia) | TGI (OVCAR-3 ovarian) | TGI (COLO 205 colon) | TGI (EKVX NSCLC) | TGI (SK-MEL-5 melanoma) | TGI (NCI-H522 lung) | TGI (T-47D breast) | TGI (UACC-62 melanoma) | TGI (CCRF-CEM leukemia) | TGI (NCI-H460 lung) | TGI (HS 578T breast) | TGI (U251 CNS) | TGI (HOP-62 NSCLC) | TGI (NCI-H23 lung) | TGI (ACHN renal) | TGI (MDA-MB-231 breast) | TGI (TK-10 renal) | GI50 (EKVX NSCLC) | GI50 (MDA-MB-231 breast)
CCCCN1C(=O)C2Cc3c([nH]c4ccccc34)C(c3cccc(O)c3)N2C1=O (centres undefined) | 46.2 µM | 30.2 µM | 39.5 µM | 31.9 µM | 31.1 µM | 39.9 µM | 51.9 µM | 32.3 µM | 36.2 µM | 37.1 µM | 69.1 µM | 33.5 µM | 33.1 µM | 37.9 µM | 34.1 µM | 31.2 µM | 33.6 µM | – | –
O=C(O)c1ccccc1C(=O)NCC1S(=O)(=O)OCCOS1(=O)=O | > 100 µM | > 100 µM | > 100 µM | > 100 µM | > 100 µM | > 100 µM | > 100 µM | > 100 µM | > 100 µM | > 100 µM | > 100 µM | > 100 µM | > 100 µM | > 100 µM | > 100 µM | > 100 µM | > 100 µM | – | –
NC(=O)C1CCCN1C(=O)C(Cc1cnc[nH]1)NC(=O)C1CCCC1 (centres undefined) | > 100 µM | > 100 µM | > 100 µM | > 100 µM | > 100 µM | > 100 µM | > 100 µM | > 100 µM | > 100 µM | > 100 µM | > 100 µM | > 100 µM | > 100 µM | > 100 µM | > 100 µM | > 100 µM | > 100 µM | – | –
CCn1cc2c(=O)n3ncn(-c4ccc(Br)cc4)c3nc2n1 | > 100 µM | > 100 µM | > 100 µM | > 100 µM | > 100 µM | > 100 µM | > 100 µM | > 100 µM | > 100 µM | – | > 100 µM | > 100 µM | > 100 µM | > 100 µM | > 100 µM | > 100 µM | > 100 µM | – | –
NC1N=C(c2ccc(Cl)cc2)C2=C(N1)c1ccccc1CC2 (centres undefined) | 10.6 µM | > 100 µM | > 100 µM | > 100 µM | > 56.3 µM | 36.2 µM | > 100 µM | > 100 µM | > 100 µM | > 100 µM | > 100 µM | > 100 µM | > 82.7 µM | > 100 µM | > 100 µM | > 100 µM | > 100 µM | – | –
N#C/C(=C\c1ccc(F)cc1)c1nc(-c2cc3ccccc3oc2=O)cs1 | > 100 µM | – | > 100 µM | > 100 µM | 41.6 µM | 74.4 µM | > 100 µM | 38.7 µM | > 100 µM | > 100 µM | 56.7 µM | 61.4 µM | 25.7 µM | – | > 100 µM | 33.7 µM | 38.3 µM | – | –
COc1ccc(N=c2oc3ccccc3cc2C(N)=O)cc1 | > 100 µM | > 100 µM | > 100 µM | > 100 µM | > 100 µM | 93.1 µM | > 100 µM | > 100 µM | > 100 µM | > 100 µM | 42.9 µM | > 100 µM | 34.8 µM | > 100 µM | 37.1 µM | > 100 µM | 46.6 µM | – | –
CC1=NN(c2cccc(Cl)c2)C2(SCC(=O)N2c2nc3ccccc3s2)C1=CC=Cc1ccccc1 (centres undefined) | 3.04 µM | > 100 µM | – | > 100 µM | 47 µM | 62.3 µM | > 100 µM | – | > 100 µM | > 100 µM | 63.4 µM | 48.8 µM | > 100 µM | 91.1 µM | 65.9 µM | 72 µM | > 100 µM | – | –
COc1ccc(S(=O)(=O)N2C(=O)CCC2C(=O)NC(N)=O)cc1 (centres undefined) | > 100 µM | > 100 µM | > 100 µM | > 100 µM | > 100 µM | > 100 µM | > 100 µM | > 100 µM | > 100 µM | > 100 µM | > 100 µM | > 100 µM | > 100 µM | > 100 µM | > 100 µM | > 100 µM | > 100 µM | – | –
COc1ccc2c(c1)Cc1c(NCCN(C)C)ccc(C(=O)NCCCN(C)CCCNC(=O)c3ccc(NCCN(C)C)c4c3Nc3ccc(OC)cc3C4)c1N2 | 1.17 µM | 1.21 µM | 0.207 µM | 0.643 µM | 1.72 µM | 0.0514 µM | 12.5 µM | 0.365 µM | 5.49 µM | 0.175 µM | 0.332 µM | 1.1 µM | 1.02 µM | 0.581 µM | 9.79 µM | 0.419 µM | 4.88 µM | – | –
Cc1cc(S(=O)(=O)NC2=NCc3nc4ccccc4n32)c(S)cc1Cl | 51.8 µM | 40.3 µM | 34.4 µM | 86 µM | 32.1 µM | > 100 µM | 50.3 µM | 33.3 µM | 86.6 µM | 82.4 µM | 63.3 µM | > 100 µM | – | – | > 100 µM | 55.9 µM | > 100 µM | – | –
CC1OC(OC2C(OC(=O)[C@]34CCC(C)(C)C[C@H]3C3=CC[C@@H]5[C@@]6(C)CC[C@H](OC7OC(C(=O)O)C(O)C(O)C7O)C(C)(C)[C@@H]6CC[C@@]5(C)[C@]3(C)C[C@H]4O)OCC(O)C2O)C(O)C(O)C1OC1OCC(O)C(O)C1O (some centres undefined) | 30.5 µM and 26.9 µM | 32.2 µM and 29.1 µM | 12.3 µM and 3.98 µM | 21.3 µM and 13 µM | 30.5 µM and 34.7 µM | 24.4 µM | 96.2 µM and 30.6 µM | 32.7 µM and 30.1 µM | 36.1 µM and 61.2 µM | 48.3 µM and 33.7 µM | 39.5 µM and 39.3 µM | 29.1 µM and 24.3 µM | 32.7 µM and 28.3 µM | 18.2 µM and 20.7 µM | 21.5 µM | 22.3 µM and 8.24 µM | – | 7.47 µM and 3.7 µM | 9.19 µM and 3.49 µM
c1csc(-c2nn3c(C45CC6CC(CC(C6)C4)C5)nnc3s2)c1 | > 100 µM | > 100 µM | > 100 µM | > 100 µM | > 100 µM | > 100 µM | > 100 µM | > 100 µM | > 100 µM | > 100 µM | > 100 µM | > 100 µM | > 100 µM | > 100 µM | > 100 µM | > 100 µM | – | – | –
COC(=O)CCC(=O)c1ccc2c(c1)CCC2 | > 100 µM | > 100 µM | – | > 100 µM | > 100 µM | > 100 µM | > 100 µM | – | > 100 µM | > 100 µM | > 100 µM | > 100 µM | > 100 µM | > 100 µM | > 100 µM | > 100 µM | > 100 µM | – | –
